Publication PMC3466217, “A Novel Magnetic Nanoparticle Drug Carrier for Enhanced Cancer Chemotherapy” (PLoS ONE, 2012)
≈ marks a conversion by molar mass, not a printed value.

Key:
H22 cells = assay: Cytotoxicity in H22 cell culture (MTT assay); type: cell-based, mouse; conditions: 24 hrs, concentration as DOX
Method: A volume of 180 µl of H22 cells were seeded in 96-well plates (4,000 cells/well).
Control cells were cultured in medium only. Thiazolyl blue tetrazolium bromide (25 µl of 5 mg/ml) (MTT, AMRESCO Inc, Solon, OH) was added to each well and incubated for 4 hrs. The culture medium was removed from the wells and replaced with 150 µl dimethylsulfoxide (DMSO, BioTek, Winooski, VT). After shaking gently for 15 min at 25°C, the DMSO solution was transferred to centrifugation tubes and centrifuged at 2,000 rpm for 5 min. The absorbance was then measured at 570 nm with an ELx-800 Universal Microplate Reader (BioTek, Winooski, VT). […] The half-maximal inhibitory concentration (IC50; drug concentration corresponding to 50% growth inhibition) was calculated using SigmaPlot 9.0 software (Systat Software Inc., San Jose, CA) and the 4-parameter logistic function standard curve analysis for dose response.

H22 hepatoma cell tumor = assay: Chemotherapy experiments in H22 tumor-bearing mice (tumor volume, life span, histology); conditions: no EMF
Method: The mouse hepatoma H22 cell line was grown in RPMI-1640 medium supplemented with 10% FBS, 100 units/ml of penicillin and 100 µg/ml of streptomycin at 37°C and 5% CO2. BALB/c mice (4- to 8-week-old males, body weight 26±5 g) were housed (one mouse per cage) under specific pathogen-free conditions, maintained on a 12-hour light-dark cycle with controlled temperature (20–24°C), and were given sterile food. The tumor-bearing mouse model was generated by subcutaneous injection of 4×10^5 H22 cells with 50 µl phosphate-buffered saline (PBS) into the shaved right flank. The treatment protocol required the mice to be anesthetized and these were anesthetized with ketamine (80 mg/kg) and xylazine (3 mg/kg), and acepromazine (2 mg/kg) via intraperitoneal injection (IP). If an additional dose was needed, ketamine alone was used.
The doses were normalized to 5 mg DOX per kg body weight when the tumor volume reached 50 to 100 mm^3 (∼10 days after tumor cell inoculation). The volume for 150 µl was injected via the tail vein and the treatment was carried out three times without interval in three weeks.
Chemotherapy experiments: H22 tumor-bearing mice (4 groups; for each group, n = 18) were used and the treatment was performed as described above. The antitumor effect was assessed by the following steps: 1) six mice were sacrificed for each group on the 24th day following treatment. The tumors were harvested and fixed in 10% formalin, embedded in paraffin and sectioned (5 µm coupes) for hematoxylin–eosin (HE) staining for microscopic examination purposes; 2) tumor sizes (4 groups; for each group, n = 12) were measured by a caliper before therapy and every three days after treatment using the following equation: tumor volume (V, mm^3) = (tumor length×tumor width)^2/2. The life span of each animal was also recorded. The relative tumor volume was calculated from V = V/V0, where V0 is the tumor volume at the beginning of treatment. The endpoints of the antitumor effect were evaluated by the degree of tumor growth inhibition and life span after treatment.

[1] = DOX biodistribution in H22 tumor-bearing mice; type: in vivo, BALB/c mice; conditions: 5 mg DOX/kg, tail vein, 0.5 hr after treatment, no EMF
Method: The blood, main organs (heart, lung, liver, spleen, kidney), and the tumor of each mouse were harvested for quantitative analysis of the DOX biodistribution. The blood was centrifuged at 5,000 rpm for 1 min at 4°C and the supernatant was obtained by adding 180 µl methanol and 20 µl of inner standard solution (0.2 mg/ml daunorubicin solution dissolved in methanol) to a 2-ml tube containing 200 µl plasma. For the organ (heart, lung, liver, spleen, kidney) and tumor samples, the frozen tissues were weighed and homogenized at 4°C in 0.9% NaCl to a total volume of 10 ml, and centrifuged at 5,000 rpm for 1 min at 4°C to retrieve the supernatant.
A total volume of 200 µl of the plasma, or the supernatant of homogenized tissue, or the tumor samples was then mixed with 180 µl methanols and 20 µl inner standard solutions, followed by 0.4 g sodium sulfate. The mixture was homogenized by vortexing for 5 min and then incubated at 4°C for 1 hr. After the 1-hr incubation, the mixture was centrifuged at 12,000 rpm for 15 min. […] Finally, the percent-injected dose per gram tissue of the tissue and tumor samples was calculated.

SMILES: COc1cccc2c1C(=O)c1c(O)c3c(c(O)c1C2=O)C[C@@](O)(C(=O)CO)C[C@@H]3O[C@H]1C[C@H](N)[C@H](O)[C@H](C)O1 [DOX, doxorubicin]
- IC50 (cell inhibition rate) (H22 cells): 0.530 ± 0.010 µg/mL (≈ 0.975 µM)
- life span of tumor-bearing mice (H22 hepatoma cell tumor; 5 mg DOX/kg iv three times): 31.3 ± 3.31 days
- tumor histology (HE staining) (H22 hepatoma cell tumor; 24th day following treatment): A few necrotic cells were observed
- relative tumor volume (V/V0) (H22 hepatoma cell tumor; 21 days after start of treatment, 5 mg DOX/kg iv three times): 7.08±1.68
- survival rate of tumor-bearing mice (H22 hepatoma cell tumor; following treatment for 33 days): 33.3%
- DOX concentrations in the other organs (heart, lung and kidney) [1]: Very low concentrations
- percent injected dose per gram tissue in blood [1]: 1.07%
- percent injected dose per gram tissue in livers [1]: 0.402%
- percent injected dose per gram tissue in spleens [1]: 0.634%
- percent injected dose per gram tissue in tumors [1]: 0.741%
